According to publication PMC4629031, “Evaluation of the Inhibitory Effects of Bavachinin and Bavachin on Human Monoamine Oxidases A and B” (Evidence-based Complementary and Alternative Medicine : eCAM, 2015):

Legend:
[1] = molecular target: T1, human monoamine oxidase A (hMAO-A) (Homo sapiens, UniProt P21397); test: MAO-Glo luminescent assay with recombinant enzyme; Michaelis-Menten/Lineweaver-Burk kinetics (IC50 […]); format: biochemical
T1 construct: gene MAOA
T1 sequence (P21397 1-527): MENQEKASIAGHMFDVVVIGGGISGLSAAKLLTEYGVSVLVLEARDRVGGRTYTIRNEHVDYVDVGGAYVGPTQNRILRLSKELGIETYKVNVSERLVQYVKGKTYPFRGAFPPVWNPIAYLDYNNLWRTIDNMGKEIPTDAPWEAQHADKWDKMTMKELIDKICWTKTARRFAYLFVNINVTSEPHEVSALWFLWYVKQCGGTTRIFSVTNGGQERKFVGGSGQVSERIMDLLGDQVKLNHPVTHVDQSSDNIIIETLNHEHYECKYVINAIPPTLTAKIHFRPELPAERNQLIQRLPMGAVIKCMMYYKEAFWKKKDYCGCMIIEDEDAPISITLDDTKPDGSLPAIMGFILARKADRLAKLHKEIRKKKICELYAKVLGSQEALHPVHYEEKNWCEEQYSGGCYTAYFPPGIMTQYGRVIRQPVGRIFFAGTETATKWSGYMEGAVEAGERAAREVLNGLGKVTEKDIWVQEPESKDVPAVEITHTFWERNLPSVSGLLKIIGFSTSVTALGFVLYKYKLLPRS

[2] = molecular target: T2, human monoamine oxidase B (hMAO-B) (Homo sapiens, UniProt P27338); test: as above; format: biochemical
T2 construct: gene MAOB
T2 sequence (P27338 2-520): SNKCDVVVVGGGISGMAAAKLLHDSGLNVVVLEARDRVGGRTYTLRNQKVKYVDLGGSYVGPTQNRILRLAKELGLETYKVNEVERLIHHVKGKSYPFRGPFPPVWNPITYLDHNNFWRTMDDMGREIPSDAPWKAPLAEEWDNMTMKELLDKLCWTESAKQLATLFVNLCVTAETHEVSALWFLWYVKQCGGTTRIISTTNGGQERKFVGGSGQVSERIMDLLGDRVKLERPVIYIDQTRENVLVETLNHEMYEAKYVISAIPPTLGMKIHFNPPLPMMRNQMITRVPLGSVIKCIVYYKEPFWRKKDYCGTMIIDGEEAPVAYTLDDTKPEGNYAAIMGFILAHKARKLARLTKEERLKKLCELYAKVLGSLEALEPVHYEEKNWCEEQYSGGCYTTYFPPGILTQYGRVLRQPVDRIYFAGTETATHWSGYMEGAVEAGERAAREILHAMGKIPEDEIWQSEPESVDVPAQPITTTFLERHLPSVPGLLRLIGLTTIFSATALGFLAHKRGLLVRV

Ki [1]: 95.3 µM
Ki [2]: 9.22 µM
SMILES: COc1cc2c(cc1CC=C(C)C)C(=O)C[C@@H](c1ccc(O)cc1)O2 [BNN, 4′-hydroxy-7-methoxy-6-(3-methyl-2-butenyl) flavanone]
